Test results taken from BigSolDB 2.1.

conditions: in acetonitrile, 298.15 K

solubility (mole fraction) | SMILES
0.000116 | O=C(/C=C/c1cn(-c2ccccc2)nc1-c1ccc(Cl)cc1)c1nc2ccccc2[nH]1
0.000165 | COc1ccc(-c2nn(-c3ccccc3)cc2/C=C/C(=O)c2nc3ccccc3[nH]2)cc1

More lines, now with the values behind:

SMILES | solubility (mole fraction)
COc1cccc(-c2nn(-c3ccccc3)cc2/C=C/C(=O)c2nc3ccccc3[nH]2)c1 | 2.91e-05
O=C(/C=C/c1cn(-c2ccccc2)nc1-c1ccccc1Cl)c1nc2ccccc2[nH]1 | 1.78e-05
COc1ccc(-c2nn(-c3ccccc3)cc2/C=C/C(=O)c2nc3ccccc3[nH]2)cc1OC | 0.000113
O=C(/C=C/c1cn(-c2ccccc2)nc1-c1cccc([N+](=O)[O-])c1)c1nc2ccccc2[nH]1 | 0.000103
O=C(/C=C/c1cn(-c2ccccc2)nc1-c1ccccc1)c1nc2ccccc2[nH]1 | 5.71e-05

same assay, conditions: in acetonitrile, 303.15 K

solubility (mole fraction) | SMILES
0.000135 | O=C(/C=C/c1cn(-c2ccccc2)nc1-c1ccc(Cl)cc1)c1nc2ccccc2[nH]1
0.0002 | COc1ccc(-c2nn(-c3ccccc3)cc2/C=C/C(=O)c2nc3ccccc3[nH]2)cc1

Continued, compound first:

SMILES | solubility (mole fraction)
COc1cccc(-c2nn(-c3ccccc3)cc2/C=C/C(=O)c2nc3ccccc3[nH]2)c1 | 4.16e-05
O=C(/C=C/c1cn(-c2ccccc2)nc1-c1ccccc1Cl)c1nc2ccccc2[nH]1 | 6e-05
COc1ccc(-c2nn(-c3ccccc3)cc2/C=C/C(=O)c2nc3ccccc3[nH]2)cc1OC | 0.000135
O=C(/C=C/c1cn(-c2ccccc2)nc1-c1cccc([N+](=O)[O-])c1)c1nc2ccccc2[nH]1 | 0.000123
O=C(/C=C/c1cn(-c2ccccc2)nc1-c1ccccc1)c1nc2ccccc2[nH]1 | 6.5e-05

same assay, conditions: in acetonitrile, 308.15 K

solubility (mole fraction) | SMILES
0.000153 | O=C(/C=C/c1cn(-c2ccccc2)nc1-c1ccc(Cl)cc1)c1nc2ccccc2[nH]1
0.000227 | COc1ccc(-c2nn(-c3ccccc3)cc2/C=C/C(=O)c2nc3ccccc3[nH]2)cc1

Second part, the compound before the results:

SMILES | solubility (mole fraction)
COc1cccc(-c2nn(-c3ccccc3)cc2/C=C/C(=O)c2nc3ccccc3[nH]2)c1 | 5.87e-05
O=C(/C=C/c1cn(-c2ccccc2)nc1-c1ccccc1Cl)c1nc2ccccc2[nH]1 | 0.000101
COc1ccc(-c2nn(-c3ccccc3)cc2/C=C/C(=O)c2nc3ccccc3[nH]2)cc1OC | 0.000152
O=C(/C=C/c1cn(-c2ccccc2)nc1-c1cccc([N+](=O)[O-])c1)c1nc2ccccc2[nH]1 | 0.000148
O=C(/C=C/c1cn(-c2ccccc2)nc1-c1ccccc1)c1nc2ccccc2[nH]1 | 7.61e-05

same assay, conditions: in acetonitrile, 313.15 K

solubility (mole fraction) | SMILES
0.000171 | O=C(/C=C/c1cn(-c2ccccc2)nc1-c1ccc(Cl)cc1)c1nc2ccccc2[nH]1
0.00025 | COc1ccc(-c2nn(-c3ccccc3)cc2/C=C/C(=O)c2nc3ccccc3[nH]2)cc1

The remaining lines, values behind:

SMILES | solubility (mole fraction)
COc1cccc(-c2nn(-c3ccccc3)cc2/C=C/C(=O)c2nc3ccccc3[nH]2)c1 | 7.62e-05
O=C(/C=C/c1cn(-c2ccccc2)nc1-c1ccccc1Cl)c1nc2ccccc2[nH]1 | 0.00014
COc1ccc(-c2nn(-c3ccccc3)cc2/C=C/C(=O)c2nc3ccccc3[nH]2)cc1OC | 0.00017
O=C(/C=C/c1cn(-c2ccccc2)nc1-c1cccc([N+](=O)[O-])c1)c1nc2ccccc2[nH]1 | 0.000163
O=C(/C=C/c1cn(-c2ccccc2)nc1-c1ccccc1)c1nc2ccccc2[nH]1 | 9.3e-05

same assay, conditions: in acetonitrile, 318.15 K

solubility (mole fraction) | SMILES
0.000182 | O=C(/C=C/c1cn(-c2ccccc2)nc1-c1ccc(Cl)cc1)c1nc2ccccc2[nH]1
0.000282 | COc1ccc(-c2nn(-c3ccccc3)cc2/C=C/C(=O)c2nc3ccccc3[nH]2)cc1

Continued, compound first:

SMILES | solubility (mole fraction)
COc1cccc(-c2nn(-c3ccccc3)cc2/C=C/C(=O)c2nc3ccccc3[nH]2)c1 | 9.21e-05
O=C(/C=C/c1cn(-c2ccccc2)nc1-c1ccccc1Cl)c1nc2ccccc2[nH]1 | 0.000187
COc1ccc(-c2nn(-c3ccccc3)cc2/C=C/C(=O)c2nc3ccccc3[nH]2)cc1OC | 0.000189
O=C(/C=C/c1cn(-c2ccccc2)nc1-c1cccc([N+](=O)[O-])c1)c1nc2ccccc2[nH]1 | 0.00019
O=C(/C=C/c1cn(-c2ccccc2)nc1-c1ccccc1)c1nc2ccccc2[nH]1 | 0.000102

same assay, conditions: in acetonitrile, 323.15 K

solubility (mole fraction) | SMILES
0.000193 | O=C(/C=C/c1cn(-c2ccccc2)nc1-c1ccc(Cl)cc1)c1nc2ccccc2[nH]1
0.000301 | COc1ccc(-c2nn(-c3ccccc3)cc2/C=C/C(=O)c2nc3ccccc3[nH]2)cc1

Further lines, the compound ahead of its results:

SMILES | solubility (mole fraction)
COc1cccc(-c2nn(-c3ccccc3)cc2/C=C/C(=O)c2nc3ccccc3[nH]2)c1 | 0.000111
O=C(/C=C/c1cn(-c2ccccc2)nc1-c1ccccc1Cl)c1nc2ccccc2[nH]1 | 0.00021
COc1ccc(-c2nn(-c3ccccc3)cc2/C=C/C(=O)c2nc3ccccc3[nH]2)cc1OC | 0.00021
O=C(/C=C/c1cn(-c2ccccc2)nc1-c1cccc([N+](=O)[O-])c1)c1nc2ccccc2[nH]1 | 0.000216
O=C(/C=C/c1cn(-c2ccccc2)nc1-c1ccccc1)c1nc2ccccc2[nH]1 | 0.00012
